ChEMBL document CHEMBL3046293, “Fungicidal Activities of -Methoxyphenylacetic Acid Derivatives” (2002)

Columns and labels:
Type in all cases: functional
Botrytis cinerea [1] = assay: Fungicidal activity against Botryotinia fuckeliana assessed as cucumber gray mold disease control at 500 ppm treated 24 hr before inoculation by preventive manner
Pyricularia oryzae [2] = assay: Fungicidal activity against Magnaporthe oryzae Cav. race 003 assessed as rice blast disease control at 500 ppm treated 24 hr before inoculation by preventive manner
Podosphaera fuliginea [3] = assay: Fungicidal activity against Podosphaera fuliginea assessed as cucumber powdery mildew disease control at 31.3 ppm treated 24 hr before inoculation by preventive manner
Podosphaera fuliginea [4] = assay: Fungicidal activity against Podosphaera fuliginea assessed as cucumber powdery mildew disease control at 7.8 ppm treated 24 hr before inoculation by preventive manner
Pyricularia oryzae [5] = assay: Fungicidal activity against Magnaporthe oryzae Cav. race 003 assessed as rice blast disease control at 125 ppm treated 24 hr before inoculation by preventive manner
Podosphaera fuliginea [6] = assay: Fungicidal activity against Podosphaera fuliginea assessed as cucumber powdery mildew disease control at 500 ppm treated 24 hr before inoculation by preventive manner
Botrytis cinerea [7] = assay: Fungicidal activity against Botryotinia fuckeliana assessed as cucumber gray mold disease control at 7.8 ppm treated 24 hr before inoculation by preventive manner
Podosphaera fuliginea [8] = assay: Fungicidal activity against Podosphaera fuliginea assessed as cucumber powdery mildew disease control at 125 ppm treated 24 hr before inoculation by preventive manner
Podosphaera fuliginea [9] = assay: Fungicidal activity against Podosphaera fuliginea assessed as cucumber powdery mildew control at 7.8 ppm foliar application 24 hr after inoculation by curative manner
Podosphaera fuliginea [10] = assay: Fungicidal activity against Podosphaera fuliginea assessed as cucumber powdery mildew control at 0.125 ppm foliar application 24 hr before inoculation by preventive manner
Podosphaera fuliginea [11] = assay: Fungicidal activity against Podosphaera fuliginea assessed as cucumber powdery mildew control at 7.8 ppm foliar application 24 hr before inoculation by preventive manner
Podosphaera fuliginea [12] = assay: Fungicidal activity against Podosphaera fuliginea assessed as cucumber powdery mildew control at 0.5 ppm foliar application 24 hr after inoculation by curative manner
Podosphaera fuliginea [13] = assay: Fungicidal activity against Podosphaera fuliginea assessed as cucumber powdery mildew control at 2 ppm foliar application 24 hr after inoculation by curative manner
Podosphaera fuliginea [14] = assay: Fungicidal activity against Podosphaera fuliginea assessed as cucumber powdery mildew control at 0.5 ppm foliar application 24 hr before inoculation by preventive manner
Podosphaera fuliginea [15] = assay: Fungicidal activity against Podosphaera fuliginea assessed as cucumber powdery mildew control at 0.125 ppm foliar application 24 hr after inoculation by curative manner
Podosphaera fuliginea [16] = assay: Fungicidal activity against Podosphaera fuliginea assessed as cucumber powdery mildew control at 2 ppm foliar application 24 hr before inoculation by preventive manner
Thanatephorus cucumeris [17] = assay: Fungicidal activity against Thanatephorus cucumeris assessed as rice sheath blight disease control at 7.8 ppm foliar application for 24 hr after inoculation by curative manner
Thanatephorus cucumeris [18] = assay: Fungicidal activity against Thanatephorus cucumeris assessed as rice sheath blight disease control at 31.3 ppm foliar application for 24 hr before inoculation by preventive manner
Thanatephorus cucumeris [19] = assay: Fungicidal activity against Thanatephorus cucumeris assessed as rice sheath blight disease control at 2 ppm foliar application for 24 hr before inoculation by preventive manner
Thanatephorus cucumeris [20] = assay: Fungicidal activity against Thanatephorus cucumeris assessed as rice sheath blight disease control at 31.3 ppm foliar application for 24 hr after inoculation by curative manner
Thanatephorus cucumeris [21] = assay: Fungicidal activity against Thanatephorus cucumeris assessed as rice sheath blight disease control at 125 ppm foliar application for 24 hr before inoculation by preventive manner
Thanatephorus cucumeris [22] = assay: Fungicidal activity against Thanatephorus cucumeris assessed as rice sheath blight disease control at 2 ppm foliar application for 24 hr after inoculation by curative manner
Thanatephorus cucumeris [23] = assay: Fungicidal activity against Thanatephorus cucumeris assessed as rice sheath blight disease control at 7.8 ppm foliar application for 24 hr before inoculation by preventive manner
Thanatephorus cucumeris [24] = assay: Fungicidal activity against Thanatephorus cucumeris assessed as rice sheath blight disease control at 125 ppm foliar application for 24 hr after inoculation by curative manner

## CNC(=O)C(OC)c1cccc(COc2ccc(C)cc2)c1 (stereo unspecified)
Botrytis cinerea [1]
  Activity: <50%
Pyricularia oryzae [2]
  Activity: 90%
Podosphaera fuliginea [3]
  Activity: 90%

## CCc1ccccc1OCc1cccc(C(OC)C(=O)NC)c1 (stereo unspecified)
Botrytis cinerea [1]
  Activity: 50%
Podosphaera fuliginea [4]
  Activity: 90%
Pyricularia oryzae [5]
  Activity: 90%

## CNC(=O)C(OC)c1cccc(COc2ccccc2OC)c1 (stereo unspecified)
Botrytis cinerea [1]
  Activity: <50%
Podosphaera fuliginea [6]
  Activity: <90%
Pyricularia oryzae [2]
  Activity: <90%

## CNC(=O)C(OC)c1cccc(COc2ccc(Cl)cc2Cl)c1 (stereo unspecified)
Botrytis cinerea [1]
  Activity: <50%
Pyricularia oryzae [2]
  Activity: <90%
Podosphaera fuliginea [4]
  Activity: 90%

## CNC(=O)C(OC)c1cccc(COc2cc(Cl)cc(Cl)c2)c1 (stereo unspecified)
Botrytis cinerea [1]
  Activity: <50%
Pyricularia oryzae [2]
  Activity: <90%
Podosphaera fuliginea [3]
  Activity: 90%

## CNC(=O)C(OC)c1cccc(COc2cccc(C)c2C)c1 (stereo unspecified)
Botrytis cinerea [7]
  Activity: 50%
Podosphaera fuliginea [4]
  Activity: 90%
Pyricularia oryzae [5]
  Activity: 90%

## CNC(=O)C(OC)c1cccc(COc2c(C)cccc2C)c1 (stereo unspecified)
Botrytis cinerea [1]
  Activity: <50%
Podosphaera fuliginea [6]
  Activity: <90%
Pyricularia oryzae [2]
  Activity: <90%

## CNC(=O)C(OC)c1cccc(COc2ccc(C)c(C)c2)c1 (stereo unspecified)
Botrytis cinerea [1]
  Activity: 50%
Podosphaera fuliginea [3]
  Activity: 90%
Pyricularia oryzae [5]
  Activity: 90%

## CNC(=O)C(OC)c1cccc(COc2ccc(C)cc2Cl)c1 (stereo unspecified)
Botrytis cinerea [1]
  Activity: 50%
Podosphaera fuliginea [4]
  Activity: 90%
Pyricularia oryzae [5]
  Activity: 90%

## CNC(=O)C(OC)c1cccc(COc2cc(C)ccc2Cl)c1 (stereo unspecified)
Botrytis cinerea [7]
  Activity: 50%
Podosphaera fuliginea [4]
  Activity: 90%
Pyricularia oryzae [5]
  Activity: 90%

## CNC(=O)C(OC)c1cccc(COc2ccc(Cl)cc2C)c1 (stereo unspecified)
Botrytis cinerea [7]
  Activity: 50%
Podosphaera fuliginea [4]
  Activity: 90%
Pyricularia oryzae [5]
  Activity: 90%

## CNC(=O)C(OC)c1cccc(COc2ccc(C)cc2OC)c1 (stereo unspecified)
Botrytis cinerea [1]
  Activity: 50%
Podosphaera fuliginea [6]
  Activity: <90%
Pyricularia oryzae [2]
  Activity: <90%

## CCOC(C(=O)NC)c1cccc(COc2cc(C)ccc2C)c1 (stereo unspecified)
Botrytis cinerea [1]
  Activity: <50%
Pyricularia oryzae [2]
  Activity: <90%
Podosphaera fuliginea [4]
  Activity: 90%

## CCCCOC(C(=O)NC)c1cccc(COc2cc(C)ccc2C)c1 (stereo unspecified)
Botrytis cinerea [1]
  Activity: <50%
Pyricularia oryzae [2]
  Activity: <90%
Podosphaera fuliginea [3]
  Activity: 90%

## CNC(=O)C(OC(C)=O)c1cccc(COc2cc(C)ccc2C)c1 (stereo unspecified)
Botrytis cinerea [1]
  Activity: <50%
Podosphaera fuliginea [6]
  Activity: <90%
Pyricularia oryzae [2]
  Activity: <90%

## CNC(=O)C(OCOC)c1cccc(COc2cc(C)ccc2C)c1 (stereo unspecified)
Botrytis cinerea [1]
  Activity: <50%
Podosphaera fuliginea [6]
  Activity: <90%
Pyricularia oryzae [2]
  Activity: <90%

## COC(C(=O)O)c1cccc(COc2cc(C)ccc2C)c1 (stereo unspecified)
Botrytis cinerea [1]
  Activity: <50%
Pyricularia oryzae [2]
  Activity: 90%
Podosphaera fuliginea [4]
  Activity: 90%

## COC(C(=O)SC)c1cccc(COc2cc(C)ccc2C)c1 (stereo unspecified)
Botrytis cinerea [1]
  Activity: <50%
Podosphaera fuliginea [6]
  Activity: <90%
Pyricularia oryzae [2]
  Activity: <90%

## CCCCNC(=O)C(OC)c1cccc(COc2cc(C)ccc2C)c1 (stereo unspecified)
Botrytis cinerea [1]
  Activity: <50%
Podosphaera fuliginea [6]
  Activity: <90%
Pyricularia oryzae [2]
  Activity: <90%

## COC(C(N)=O)c1cccc(COc2cc(C)ccc2C)c1 (stereo unspecified)
Botrytis cinerea [1]
  Activity: <50%
Pyricularia oryzae [2]
  Activity: 90%
Podosphaera fuliginea [3]
  Activity: 90%

## COC(C(=O)N(C)C)c1cccc(COc2cc(C)ccc2C)c1 (stereo unspecified)
Botrytis cinerea [1]
  Activity: <50%
Podosphaera fuliginea [8]
  Activity: 90%
Pyricularia oryzae [2]
  Activity: 90%

## CNC(=O)C(OC)c1cccc(CSc2cc(C)ccc2C)c1 (stereo unspecified)
Botrytis cinerea [1]
  Activity: <50%
Podosphaera fuliginea [6]
  Activity: 90%
Pyricularia oryzae [2]
  Activity: <90%

## CNC(=O)C(OC)c1cccc(Oc2ccc(Cl)cc2)c1 (stereo unspecified)
Botrytis cinerea [1]
  Activity: <50%
Podosphaera fuliginea [6]
  Activity: <90%
Pyricularia oryzae [2]
  Activity: <90%

## CNC(=O)C(OC)c1cccc(OCc2ccc(Cl)cc2)c1 (stereo unspecified)
Botrytis cinerea [1]
  Activity: <50%
Podosphaera fuliginea [6]
  Activity: <90%
Pyricularia oryzae [2]
  Activity: <90%

## CNC(=O)C(OC)c1cccc(COC(=O)c2ccc(Cl)cc2)c1 (stereo unspecified)
Botrytis cinerea [1]
  Activity: <50%
Podosphaera fuliginea [6]
  Activity: <90%
Pyricularia oryzae [2]
  Activity: <90%

## OC(c1ccc(Cl)cc1)(c1cncnc1)c1ccccc1Cl (stereo unspecified) [FENARIMOL]
Podosphaera fuliginea [9]
  Activity: 100%
Podosphaera fuliginea [10]
  Activity: 0%
Podosphaera fuliginea [11]
  Activity: 100%
Podosphaera fuliginea [12]
  Activity: 99%
Podosphaera fuliginea [13]
  Activity: 99%
Podosphaera fuliginea [14]
  Activity: 80%
Podosphaera fuliginea [15]
  Activity: 80%
Podosphaera fuliginea [16]
  Activity: 95%

## CC(C)Oc1cccc(NC(=O)c2ccccc2C(F)(F)F)c1 [FLUTOLANIL]
Thanatephorus cucumeris [17]
  Activity: 70%
Thanatephorus cucumeris [18]
  Activity: 80%
Thanatephorus cucumeris [19]
  Activity: 20%
Thanatephorus cucumeris [20]
  Activity: 80%
Thanatephorus cucumeris [21]
  Activity: 90%
Thanatephorus cucumeris [22]
  Activity: 40%
Thanatephorus cucumeris [23]
  Activity: 70%
Thanatephorus cucumeris [24]
  Activity: 80%
